Measured values from patent US3957987A, “Compositions containing a carbonamidoquinoxaline-di-N-oxide and method of using same” (Bayer Aktiengesellschaft, priority 1971, dated 1976).
Converted amounts (≈) assume the structure as drawn.

test system: Bordetella bronchiseptica; assay: Minimum inhibitory concentration, Bordetella bronchiseptica; assay type: cell-based; settings: not given

Row | Structure (SMILES) | MIC
1 | COC(=O)NN=Cc1c(C(=O)NC(C)C)[n+]([O-])c2ccccc2[n+]1[O-] [Example 17] | 100 mg/L (≈ 288 µM)
2 | O=C(NCCO)c1c(C=NO)[n+]([O-])c2ccccc2[n+]1[O-] [Example 20] | 100 mg/L (≈ 342 µM)

test system: Escherichia coli C 165; assay: Minimum inhibitory concentration in vitro, Escherichia coli C 165; assay type: cell-based; settings: C165
From the text: (§1) As representative of the spectrum of antimicrobial activity for these compounds, the following representative minimum inhibitory concentrations shown on Tables A, B and C can be noted:
(§2) Minimum Inhibitory Concentrations In Vitro, in μg/ml of Medium

Row | Structure (SMILES) | MIC
3 | COC(=O)NN=Cc1c(C(=O)NC(C)C)[n+]([O-])c2ccccc2[n+]1[O-] [Example 17] | 100 mg/L (≈ 288 µM)

test system: Escherichia coli A 261; assay: Minimum inhibitory concentration in vitro, Escherichia coli A 261; assay type: cell-based; settings: A261
From the text: as §1, §2

Row | Structure (SMILES) | MIC
4 | COC(=O)NN=Cc1c(C(=O)NC(C)C)[n+]([O-])c2ccccc2[n+]1[O-] [Example 17] | 100 mg/L (≈ 288 µM)

test system: Mycobacterium species; assay: Minimum inhibitory concentration, Mycobacterium species; assay type: cell-based; settings: not given
From the text: As representative of the spectrum of antimicrobial activity for these compounds, the following representative minimum inhibitory concentrations shown on Tables A, B and C can be noted: […]

Row | Structure (SMILES) | MIC
5 | COC(=O)NN=Cc1c(C(=O)NC(C)C)[n+]([O-])c2ccccc2[n+]1[O-] [Example 17] | 100 mg/L (≈ 288 µM)
6 | O=C(NCCO)c1c(C=NO)[n+]([O-])c2ccccc2[n+]1[O-] [Example 20] | 100 mg/L (≈ 342 µM)

test system: Staphylococcus aureus 133; assay: Minimum inhibitory concentration in vitro, Staphylococcus aureus 133; assay type: cell-based; settings: not given
From the text: as §1, §2

Row | Structure (SMILES) | MIC
7 | COC(=O)NN=Cc1c(C(=O)NC(C)C)[n+]([O-])c2ccccc2[n+]1[O-] [Example 17] | 100 mg/L (≈ 288 µM)

test system: Streptococcus pyogenes; assay: Minimum inhibitory concentration in vitro, Streptococcus pyogenes; assay type: cell-based; settings: not given
From the text: as §1, §2

Row | Structure (SMILES) | MIC
8 | COC(=O)NN=Cc1c(C(=O)NC(C)C)[n+]([O-])c2ccccc2[n+]1[O-] [Example 17] | 100 mg/L (≈ 288 µM)

test system: Mycoplasma S6; assay: Minimum inhibitory concentration, Mycoplasma S6; assay type: cell-based; settings: not given

Row | Structure (SMILES) | MIC
9 | COC(=O)NN=Cc1c(C(=O)NC(C)C)[n+]([O-])c2ccccc2[n+]1[O-] [Example 17] | 100 mg/L (≈ 288 µM)
10 | O=C(NCCO)c1c(C=NO)[n+]([O-])c2ccccc2[n+]1[O-] [Example 20] | 100 mg/L (≈ 342 µM)

test system: Alcaligenes faecalis ATCC; assay: Minimum inhibitory concentration, Alcaligenes faecalis ATCC; assay type: cell-based; settings: not given

Row | Structure (SMILES) | MIC
11 | COC(=O)NN=Cc1c(C(=O)NC(C)C)[n+]([O-])c2ccccc2[n+]1[O-] [Example 17] | 100 mg/L (≈ 288 µM)
12 | O=C(NCCO)c1c(C=NO)[n+]([O-])c2ccccc2[n+]1[O-] [Example 20] | 100 mg/L (≈ 342 µM)

test system: Aeromonas liquefaciens; assay: Minimum inhibitory concentration, Aeromonas liquefaciens; assay type: cell-based; settings: Aeromonas hydrophila

Row | Structure (SMILES) | MIC
13 | COC(=O)NN=Cc1c(C(=O)NC(C)C)[n+]([O-])c2ccccc2[n+]1[O-] [Example 17] | 100 mg/L (≈ 288 µM)
14 | O=C(NCCO)c1c(C=NO)[n+]([O-])c2ccccc2[n+]1[O-] [Example 20] | 100 mg/L (≈ 342 µM)

test system: Clostridium tetani; assay: microbe, parasite or virus in culture; assay type: cell-based; settings: read-out: minimum inhibitory concentration

Row | Structure (SMILES) | MIC
15 | COC(=O)NN=Cc1c(C(=O)NC(C)C)[n+]([O-])c2ccccc2[n+]1[O-] [Example 17] | 100 mg/L (≈ 288 µM)
16 | O=C(NCCO)c1c(C=NO)[n+]([O-])c2ccccc2[n+]1[O-] [Example 20] | 100 mg/L (≈ 342 µM)

test system: Mycoplasma gran; assay: Minimum inhibitory concentration, Mycoplasma gran; assay type: cell-based; settings: not given

Row | Structure (SMILES) | MIC
17 | COC(=O)NN=Cc1c(C(=O)NC(C)C)[n+]([O-])c2ccccc2[n+]1[O-] [Example 17] | 100 mg/L (≈ 288 µM)
18 | O=C(NCCO)c1c(C=NO)[n+]([O-])c2ccccc2[n+]1[O-] [Example 20] | 100 mg/L (≈ 342 µM)

test system: Klebsiella 63; assay: Minimum inhibitory concentration in vitro, Klebsiella 63; assay type: cell-based; settings: not given
From the text: as §1, §2

Row | Structure (SMILES) | MIC
19 | COC(=O)NN=Cc1c(C(=O)NC(C)C)[n+]([O-])c2ccccc2[n+]1[O-] [Example 17] | 100 mg/L (≈ 288 µM)

test system: Pasteurella multocida ATCC; assay: Minimum inhibitory concentration, Pasteurella multocida ATCC; assay type: cell-based; settings: not given

Row | Structure (SMILES) | MIC
20 | COC(=O)NN=Cc1c(C(=O)NC(C)C)[n+]([O-])c2ccccc2[n+]1[O-] [Example 17] | 100 mg/L (≈ 288 µM)
21 | O=C(NCCO)c1c(C=NO)[n+]([O-])c2ccccc2[n+]1[O-] [Example 20] | 100 mg/L (≈ 342 µM)

test system: not listed separately; assay: Chick Fattening Test; assay type: in vivo; settings: Test 1, 50 ppm in feed, 14 days; control 100.0
From the text: The use of these compounds as feed additives can be seen from the following feeding experiments (Table D).
Chicks in groups of 12 were kept in cages and supplied with water ad libitum and a complete chick feed into which was intimately mixed the indicated amount of the test compound.

Row | Structure (SMILES) | Relative Weight Increase (%) after 14 days
22 | O=C(NCCO)c1c(C=NO)[n+]([O-])c2ccccc2[n+]1[O-] [Example 20] | 107.4%

same assay, conditions: Test 1, 50 ppm in feed, 14 days; control 111.5

Row | Structure (SMILES) | Absolute Weight Increase (g) of each animal after 14 days
23 | O=C(NCCO)c1c(C=NO)[n+]([O-])c2ccccc2[n+]1[O-] [Example 20] | 119.9 g

same assay, conditions: Test 1, 50 ppm in feed, 14 days; control 170.8; initial weight 59.3 g

Row | Structure (SMILES) | Average Weight of each animal after 14 days
24 | O=C(NCCO)c1c(C=NO)[n+]([O-])c2ccccc2[n+]1[O-] [Example 20] | 179.2

same assay, conditions: Test 1, 50 ppm in feed, 28 days; control 100.0

Row | Structure (SMILES) | Relative Weight Increase (%) after 28 days
25 | O=C(NCCO)c1c(C=NO)[n+]([O-])c2ccccc2[n+]1[O-] [Example 20] | 104.1%

same assay, conditions: Test 1, 50 ppm in feed, 28 days; control 275.9

Row | Structure (SMILES) | Absolute Weight Increase (g) of each animal after 28 days
26 | O=C(NCCO)c1c(C=NO)[n+]([O-])c2ccccc2[n+]1[O-] [Example 20] | 287.3 g

same assay, conditions: Test 1, 50 ppm in feed, 28 days; control 335.2; initial weight 59.3 g

Row | Structure (SMILES) | Average Weight of each animal after 28 days
27 | O=C(NCCO)c1c(C=NO)[n+]([O-])c2ccccc2[n+]1[O-] [Example 20] | 346.6

same assay, conditions: Test 2, 10 ppm in feed, 14 days; control 100.0

Row | Structure (SMILES) | Relative Weight Increase (%) after 14 days
28 | O=C(NCCO)c1c(C=NO)[n+]([O-])c2ccccc2[n+]1[O-] [Example 20] | 104.5%

same assay, conditions: Test 2, 10 ppm in feed, 14 days; control 109.2

Row | Structure (SMILES) | Absolute Weight Increase (g) of each animal after 14 days
29 | O=C(NCCO)c1c(C=NO)[n+]([O-])c2ccccc2[n+]1[O-] [Example 20] | 114.2 g

same assay, conditions: Test 2, 10 ppm in feed, 14 days; control 168.3; initial weight 59.1 g

Row | Structure (SMILES) | Average Weight of each animal after 14 days
30 | O=C(NCCO)c1c(C=NO)[n+]([O-])c2ccccc2[n+]1[O-] [Example 20] | 173.3

same assay, conditions: Test 2, 10 ppm in feed, 28 days; control 100.0

Row | Structure (SMILES) | Relative Weight Increase (%) after 28 days
31 | O=C(NCCO)c1c(C=NO)[n+]([O-])c2ccccc2[n+]1[O-] [Example 20] | 102.2%

same assay, conditions: Test 2, 10 ppm in feed, 28 days; control 292.5

Row | Structure (SMILES) | Absolute Weight Increase (g) of each animal after 28 days
32 | O=C(NCCO)c1c(C=NO)[n+]([O-])c2ccccc2[n+]1[O-] [Example 20] | 299.2 g

same assay, conditions: Test 2, 10 ppm in feed, 28 days; control 351.6; initial weight 59.1 g

Row | Structure (SMILES) | Average Weight of each animal after 28 days
33 | O=C(NCCO)c1c(C=NO)[n+]([O-])c2ccccc2[n+]1[O-] [Example 20] | 358.3

same assay, conditions: Test 2, 20 ppm in feed, 14 days; control 100.0

Row | Structure (SMILES) | Relative Weight Increase (%) after 14 days
34 | O=C(NCCO)c1c(C=NO)[n+]([O-])c2ccccc2[n+]1[O-] [Example 20] | 106.8%

same assay, conditions: Test 2, 20 ppm in feed, 14 days; control 109.2

Row | Structure (SMILES) | Absolute Weight Increase (g) of each animal after 14 days
35 | O=C(NCCO)c1c(C=NO)[n+]([O-])c2ccccc2[n+]1[O-] [Example 20] | 116.7 g

same assay, conditions: Test 2, 20 ppm in feed, 14 days; control 168.3; initial weight 59.1 g

Row | Structure (SMILES) | Average Weight of each animal after 14 days
36 | O=C(NCCO)c1c(C=NO)[n+]([O-])c2ccccc2[n+]1[O-] [Example 20] | 175.8

same assay, conditions: Test 2, 20 ppm in feed, 28 days; control 100.0

Row | Structure (SMILES) | Relative Weight Increase (%) after 28 days
37 | O=C(NCCO)c1c(C=NO)[n+]([O-])c2ccccc2[n+]1[O-] [Example 20] | 102.8%

same assay, conditions: Test 2, 20 ppm in feed, 28 days; control 292.5

Row | Structure (SMILES) | Absolute Weight Increase (g) of each animal after 28 days
38 | O=C(NCCO)c1c(C=NO)[n+]([O-])c2ccccc2[n+]1[O-] [Example 20] | 300.9 g

same assay, conditions: Test 2, 20 ppm in feed, 28 days; control 351.6; initial weight 59.1 g

Row | Structure (SMILES) | Average Weight of each animal after 28 days
39 | O=C(NCCO)c1c(C=NO)[n+]([O-])c2ccccc2[n+]1[O-] [Example 20] | 360.0

test system: Clostridium botulinum; assay: microbe, parasite or virus in culture; assay type: cell-based; settings: read-out: minimum inhibitory concentration

Row | Structure (SMILES) | MIC
40 | COC(=O)NN=Cc1c(C(=O)NC(C)C)[n+]([O-])c2ccccc2[n+]1[O-] [Example 17] | 100 mg/L (≈ 288 µM)
41 | O=C(NCCO)c1c(C=NO)[n+]([O-])c2ccccc2[n+]1[O-] [Example 20] | 100 mg/L (≈ 342 µM)

test system: Klebsiella 8085; assay: Minimum inhibitory concentration in vitro, Klebsiella 8085; assay type: cell-based; settings: not given
From the text: as §1, §2

Row | Structure (SMILES) | MIC
42 | COC(=O)NN=Cc1c(C(=O)NC(C)C)[n+]([O-])c2ccccc2[n+]1[O-] [Example 17] | 10 mg/L (≈ 28.8 µM)
